Reference: patent US6362369B1, “Phthalic acid diamide derivatives fluorine-containing aniline compounds as starting material, agricultural and horticultural insecticides, and a method for application of the insecticides” (Nihon Nohyaku Co., Ltd., priority 1997, dated 2002)

How the values were obtained:
Assay type in all cases: in vivo
[1] = tested on: diamondback moth (Plutella xylostella); assay: Insecticidal effect on diamondback moth (Test Example 1); conditions: for Insecticidal effect, Test Example 1 / Insecticidal effect (Test Example 1), judged from mortality: diamondback moth; for Insecticidal effect on diamondback moth (Test Example 1), judged grade: mortality judged according to the criterion shown in Test Example 1; for Insecticidal effect (Test Example 1), judged from mortality: judged by the criterion of Test Example 1
Summary of the method: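 Chinese cabbage seedlings carrying eggs laid by released adult moths were immersed in treatment, air-dried and held at 25° C. Hatched insects were counted six days after immersion, and mortality was calculated and scored against a fixed criterion. Three replicate groups of 10 insects were used.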

[2] = tested on: common cutworm (Spodoptera Litura); assay: Insecticidal effect on common cutworm (Test Example 2); conditions: 500 ppm, 25° C.; for Insecticidal effect, Test Example 2: cabbage leaf immersed; for Insecticidal effect, Test Example 2 / Insecticidal effect on common cutworm (Test Example 2), judged grade: eight days after inoculation; for Insecticidal effect on common cutworm (Test Example 2), judged grade / Insecticidal effect (Test Example 2), judged from mortality: cabbage leaf dip; for Insecticidal effect on common cutworm (Test Example 2), judged grade: second-instar larvae; for Insecticidal effect (Test Example 2), judged from mortality: 8 days after inoculation
Summary of the method: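 Air-dried treated material was placed in a closed dish with second-instar larvae and held at 25° C. Dead and live insects were counted eight days after inoculation, and mortality was calculated and scored against a fixed insecticidal-effect criterion. Three replicate groups of 10 insects were used.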

[3] = tested on: rice leafroller (Cnaphalocrocis medinalis); assay: Insecticidal effect on rice leafroller (Test Example 3); conditions: 500 ppm, 25° C., humidity 70%; for Insecticidal effect, Test Example 3: rice lamina immersed; for Insecticidal effect, Test Example 3 / Insecticidal effect on rice leafroller (Test Example 3), judged grade: four days after inoculation; for Insecticidal effect on rice leafroller (Test Example 3), judged grade / Insecticidal effect (Test Example 3), judged from mortality: rice lamina dip; for Insecticidal effect on rice leafroller (Test Example 3), judged grade: third-instar larvae; for Insecticidal effect (Test Example 3), judged from mortality: 4 days after inoculation
Summary of the method: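 Groups of 10 third-instar larvae, in triplicate, are placed on air-dried lamina resting on wet filter paper. Incubation runs four days at 25° C with 70% humidity before survivors and dead are tallied.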

[4] = judged by the mortality criterion of Test Example 1
[5] = second-instar larvae of common cutworm
[6] = third-instar larvae of rice leafroller
[7] = mortality judged by criterion of Test Example 1
[8] = common cutworm second-instar larvae
[9] = rice leafroller third-instar larvae

Cc1cc(OC(F)F)ccc1NC(=O)c1c(Cl)cccc1C(=O)NC(C)C [compound 236]
Insecticidal effect, Test Example 1 [1, 4]: A (100) | Insecticidal effect, Test Example 2 [2, 5]: A (100) | Insecticidal effect, Test Example 3 [3, 6]: A (100)

Cc1cc(Cl)ccc1NC(=O)c1cccc(Cl)c1C(=O)NC(C)(C)C [compound 937]
Insecticidal effect on diamondback moth (Test Example 1), judged grade [1]: A (100) | Insecticidal effect on common cutworm (Test Example 2), judged grade [2]: A (100) | Insecticidal effect on rice leafroller (Test Example 3), judged grade [3]: A (100)

Cc1c(Cl)cccc1NC(=O)c1cccc([N+](=O)[O-])c1C(=O)NC(C)C [compound 663]
Insecticidal effect on diamondback moth (Test Example 1), judged grade [1]: A (100) | Insecticidal effect on common cutworm (Test Example 2), judged grade [2]: A (100) | Insecticidal effect on rice leafroller (Test Example 3), judged grade [3]: D (79-50)

CCN(CC)C(=O)c1c(Cl)cccc1C(=O)Nc1ccc(C(F)(F)C(F)(F)F)cc1Cl [compound 1540]
Insecticidal effect (Test Example 1), judged from mortality [1]: A (100) | Insecticidal effect (Test Example 2), judged from mortality [2, 5]: A (100) | Insecticidal effect (Test Example 3), judged from mortality [3, 6]: A (100)

CC(C)NC(=O)c1c(Cl)cccc1C(=O)Nc1ccc(C(F)(C(F)(F)F)C(F)(F)F)cc1 [compound 89]
Insecticidal effect, Test Example 1 [1, 4]: A (100) | Insecticidal effect, Test Example 2 [2, 5]: B (99-90) | Insecticidal effect, Test Example 3 [3, 6]: A (100)

CC(C)NC(=O)c1ccccc1C(=O)Nc1ccc(Cl)cc1Cl [compound 42]
Insecticidal effect, Test Example 1 [1, 4]: A (100) | Insecticidal effect, Test Example 2 [2, 5]: D (79-50) | Insecticidal effect, Test Example 3 [3, 6]: A (100)

Cc1cc(C(F)(F)C(F)(F)F)ccc1NC(=O)c1cccc(I)c1C(=O)NC(C)(C)C [compound 942]
Insecticidal effect, Test Example 1 [1, 7]: A (100) | Insecticidal effect, Test Example 2 [2, 8]: A (100) | Insecticidal effect, Test Example 3 [3, 9]: A (100)

CCN(CC)C(=O)c1c(I)cccc1C(=O)Nc1ccc(C(F)(F)C(F)(F)F)cc1Cl [compound 1560]
Insecticidal effect (Test Example 1), judged from mortality [1]: A (100) | Insecticidal effect (Test Example 2), judged from mortality [2, 5]: A (100) | Insecticidal effect (Test Example 3), judged from mortality [3, 6]: A (100)

CCc1cc(C(F)(F)C(F)(F)F)ccc1NC(=O)c1cccc(Cl)c1C(=O)NC(C)C [compound 1495]
Insecticidal effect (Test Example 1), judged from mortality [1]: A (100) | Insecticidal effect (Test Example 2), judged from mortality [2, 5]: A (100) | Insecticidal effect (Test Example 3), judged from mortality [3, 6]: A (100)

CC(C)NC(=O)c1c(Br)cccc1C(=O)Nc1ccc(C(F)(F)F)cc1 [compound 261]
Insecticidal effect, Test Example 1 [1, 4]: A (100) | Insecticidal effect, Test Example 2 [2, 5]: A (100) | Insecticidal effect, Test Example 3 [3, 6]: D (79-50)

Cc1cc(OC(F)(F)C(F)(F)Br)ccc1NC(=O)c1c(Cl)cccc1C(=O)NC(C)C [compound 229]
Insecticidal effect, Test Example 1 [1, 4]: A (100) | Insecticidal effect, Test Example 2 [2, 5]: D (79-50) | Insecticidal effect, Test Example 3 [3, 6]: A (100)

Cc1cc(OC(F)(F)C(F)F)ccc1NC(=O)c1cccc(Br)c1C(=O)NC(C)C [compound 293]
Insecticidal effect, Test Example 1 [1, 4]: A (100) | Insecticidal effect, Test Example 2 [2, 5]: A (100) | Insecticidal effect, Test Example 3 [3, 6]: A (100)

Cc1cc(C(F)(F)C(F)(F)F)ccc1NC(=O)c1cccc(Cl)c1C(=O)NC(C)CO (stereo not drawn) [compound 1298]
Insecticidal effect, Test Example 1 [1, 7]: A (100) | Insecticidal effect, Test Example 2 [2, 8]: A (100) | Insecticidal effect, Test Example 3 [3, 9]: A (100)

CCc1cccc(C(=O)NC(C)C)c1C(=O)Nc1ccc(Cl)cc1C [compound 753]
Insecticidal effect on diamondback moth (Test Example 1), judged grade [1]: A (100) | Insecticidal effect on common cutworm (Test Example 2), judged grade [2]: A (100) | Insecticidal effect on rice leafroller (Test Example 3), judged grade [3]: D (79-50)

Cc1cc(OC(F)F)ccc1NC(=O)c1cccc(I)c1C(=O)NC(C)C [compound 387, N^1-(4-difluoromethoxy-2-methylphenyl)-3-iodo-N^2-isopropylphthalic acid diamide]
Insecticidal effect, Test Example 1 [1, 4]: A (100) | Insecticidal effect, Test Example 2 [2, 5]: A (100) | Insecticidal effect, Test Example 3 [3, 6]: A (100)

CC(C)NC(=O)c1c(I)cccc1C(=O)Nc1ccc(C(F)(F)C(F)(F)F)cc1C(F)(F)F [compound 1387]
Insecticidal effect, Test Example 1 [1, 7]: A (100) | Insecticidal effect, Test Example 2 [2, 8]: A (100) | Insecticidal effect, Test Example 3 [3, 9]: A (100)
